The nature of data set [1]: Acute toxicity on mice (oral). As to conditions: mouse, in vivo, p.o., CFLP mice, 20 ml/kg, 4 days observation. The protocol: The acute toxicity of the new compounds according to the invention was determined on white mice of both sexes weighing 18-24 g belonging to the strain CFLP. Administration was effected with an oral dosage of 20 ml/kg. After treatment the animals were kept under observation for 4 days.

The subject of another data set is yohimbine toxicity. In words: Potentiation of yohimbine toxicity on mice. The data set is classed as in vivo. Conditions: for ED50: Mus musculus, po; for Therapeutic index LD50/ED50: p.o., mice, yohimbine potentiation. The protocol:
The experiments were carried out by the method of Quinton et al. The test compound was administered orally in a volume of 20 ml/kg half an hour before the administration of the standard yohimbine dose.

Data set [2] concerns tetrabenazine ptosis. In words: Tetrabenazine antagonism on mice. As to conditions: for ED50: Mus musculus, po; for Therapeutic index LD50/ED50: p.o., mice, tetrabenazine antagonism.
Protocol: Groups of animals consisting of 10-20 mice each were examined. A 0.9% sodium chloride solution was administered to the mice of the control group in a dosage of 20 ml/kg. After 30 minutes 50 mg/kg of tetrabenazine were administered. The animals with closed interpalpebral zone were counted 30, 60, 90 and 120 minutes after the administration of the tetrabenazine. The data were summarized and the inhibition in comparison with the control was determined.
Data set [3] is described as follows: Acute toxicity on rats (oral). As to conditions: rat, in vivo, p.o., Wistar rats, 0.5% suspension with carboxymethylcellulose. The protocol:
The acute toxicity was investigated also on Wistar rats. A 0.5% suspension prepared from the test compound and carboxymethylcellulose was administered orally to the animals.

Data set [4] concerns tetrabenazine ptosis. Kind of data set: Tetrabenazine ptosis antagonism on rats. As to conditions: for ED50: Rattus norvegicus, read-out: Tetrabenazine ptosis ant. ED50; for Therapeutic index: tetrabenazine ptosis ant. The data set is classed as in vivo. The method, then:
(§1) The experiments were carried out on the analogy of the tests described at point (a).

The subject of data set [5] is Reserpine-ethanol narcose. Kind of data set: Reserpine-ethanol narcose antagonism on rats. The data set is classed as in vivo. Conditions: for ED50: Rattus norvegicus, read-out: Reserpine-ethanol narcose ant. ED50; for Ther. index: reserpine-ethanol narcose ant. The protocol:
as §1

Structures are written as SMILES.

As to `Clc1ccc(-c2ncn[n+]3ccccc23)cc1` [Compound B, 1-(4-chlorophenyl)-pyrido[2,1-f]-as-triazinium bromide], the LD50 – broadly, the dose at which mortality reaches 50% – at 96 h in data set [1] worked out at 900 mg/kg. In addition, the ED50 (in general, the dose that gives a 50% effect, or the effect in half of the subjects) in the data set on yohimbine toxicity was found to be 50 mg/kg; in the data set on tetrabenazine ptosis [2], 14 mg/kg. The figures for the “Therapeutic index LD50/ED50” value in the data set on yohimbine toxicity and with tetrabenazine ptosis [2] were 18.0 and 64.2, respectively.
The matching figures for `c1ccc(-c2ncn[n+]3ccccc23)cc1` [Compound A, 1-phenyl-pyrido[2,1-f]-as-triazinium bromide]: 1400 mg/kg, 66 mg/kg, 30 mg/kg, 21.2 and 46.7.
As to `Clc1ccc(-c2ncn[n+]3ccc4ccccc4c23)cc1` [Compound C, 1-(4-chlorophenyl)-as-triazino[6,1-a]-isoquinolinium bromide], the LD50 at 96 h in data set [1] turned out to be 600 mg/kg. The LD50 in data set [3] came to 1000 mg/kg. Also, in the data set on tetrabenazine ptosis [4], the ED50 came to 5.6 mg/kg and the Therapeutic index came to 178.6. Moreover, in data set [5], the ED50 came to 40 mg/kg and the Ther. index came out at 25.0. In the data set with yohimbine toxicity, the ED50 came out at 3.5 mg/kg and the “Therapeutic index LD50/ED50” value is on record as 171.4. In addition, in the data set on tetrabenazine ptosis [2], the ED50 came out at 3.2 mg/kg and the “Therapeutic index LD50/ED50” value stood at 187.5.
Turning to `CN(C)CCC=C1c2ccccc2CCc2ccccc21` [Amitriptylin, reference compound], the LD50 at 96 h in data set [1] came to 225 mg/kg. Moreover, in data set [3], the median lethal dose (LD50) was 530 mg/kg. In the data set with tetrabenazine ptosis [4], the ED50 was 11.5 mg/kg and the Therapeutic index was found to be 46.1. Further, in data set [5], the ED50 amounted to 40 mg/kg and the Ther. index turned out to be 13.25. In addition, in the data set on tetrabenazine ptosis [2], it took a dose of 12 mg/kg to reach the 50% effect level (ED50) and the “Therapeutic index LD50/ED50” value is listed as 18.75.

(Values after US4419355A, “Condensed as-triazine derivatives and method of using the same” (Egyt Gyogyszervegyeszeti Gyar, priority 1980, dated 1983).)
